The test system of experiment [1] is Pseudomonas aeruginosa. The experiment in a line: Blood culture time to positivity (flip time), bead rescue vs no-rescue control. Format: cell-based. To be noted: Meropenem 49 mg/L blood. On the procedure:
(§1) Day 1: Prepare overnight culture of test organism in blood/broth medium (50:50 blood:broth) and incubate at 37° C. (or 30° C. for C. neoformans) in a shaking incubator.
(§2) (or 30° C. for C. neoformans) for 2 h for outgrowth. • Antibiotic added to whole blood (defibrinated horse blood) at required level • Whole blood as no-antibiotic control • Test dilution(s) of organism added to blood+antibiotic or blood only at 10 μL per mL of blood (sufficient prepared for experiment requirements) • 100 μL plate count sample taken (TO sample) • 2-hour incubation (static) at 37° C. (or 30° C. for C. neoformans) • 100 μL plate count sample taken (T2 sample) • 5 mL of spiked blood+abx or blood only added to blood culture bottle (using vial adapter) and incubation started (adapter removed) • 5 mL of spiked blood+abx or blood only (from same source) treated with Momentum Capture Beads as below: • 1. Capture Beads diluted in the relevant Capture Reagent—50 μL beads:700 μL capture reagent per clean-up • 2. 750 μL of diluted beads added to 50 mL conical centrifuge tube • 3. 5 mL of transfer medium added to tube • 4. 5 mL of spiked blood+abx or blood only added to tube • 5. Incubate on ITL TherMix (32.5° C./30 min/1000 rpm—ramped speed protocol) • 6. Magnetise on V&P magnet for 10 min then remove supernatant • 7. Resuspend beads in 1 mL Detergent-free Wash Buffer (DWB) off magnet and transfer to 2 mL Eppendorf flip-top tube on DynaMag-2 magnet • 8. Magnetise for 3 min then remove supernatant • 9. Resuspend beads in 1 mL Detergent-free Wash Buffer (DWB) off magnet then replace on DynaMag-2 magnet • 10. Magnetise for 3 min then remove supernatant • 11. Resuspend beads in 1 mL DWB, add to new blood culture bottle (using vial adapter) and start incubation (adapter removed)
(§3) Record the “Flip” time of each bottle or bottle result at the end of 5 days incubation. The “Flip” time is when a bottle turns positive as determined by the automated blood culture cabinet, which records time to positivity.
(§4) Day 1: Prepare overnight culture of test organism in blood/broth medium (50:50 blood:broth) and incubate at 37° C. in a shaking incubator.
(§5) Momentum Capture Beads diluted in the relevant Capture Reagent—50 μL beads:700 μL capture reagent per clean-up • 2. 750 μL of diluted beads added to 50 mL conical centrifuge tube • 3. 5 mL of transfer medium added to tube • 4. 5 mL of spiked blood+abx or blood only added to tube • 5. Incubate on ITL TherMix (32.5° C./30 min/1000 rpm—ramped speed protocol) • 6. Magnetise on V&P magnet for 10 min then remove supernatant • 7. Resuspend beads in 1 mL Detergent-free Wash Buffer (DWB) off magnet and transfer to 2 mL Eppendorf flip-top tube on DynaMag-2 magnet • 8. Magnetise for 3 min then remove supernatant • 9. Resuspend beads in 1 mL Detergent-free Wash Buffer (DWB) off magnet then replace on DynaMag-2 magnet • 10. Magnetise for 3 min then remove supernatant • 11. Resuspend beads in 1 mL DWB, add to an unused blood culture bottle (BioMerieux FA+culture bottle) using vial adapter and start incubation (adapter removed)

Experiment [2] relates to Klebsiella pneumoniae. The description is as above. It counts as cell-based. The settings on record: Meropenem 49 mg/L blood; for Flip time: Bead rescue; for Flip time in Days: Control (FA plus bottle). As for the experimental part:
as §1, §2, §3, §4, §5

In experiment [3] the test system is Klebsiella pneumoniae. To be noted: K. pneumoniae; cited from earlier work.
Experiment [4] has as its system E. coli. The settings on record: cited from earlier work.
The test system of experiment [5] is Pseudomonas aeruginosa. The settings on record: P. aeruginosa; cited from earlier work.
In experiment [6] the test system is E. coli. Kind of experiment: Blood culture time to positivity (flip time), bead rescue vs no-rescue control. It counts as cell-based. The settings on record: Meropenem 49 mg/L blood; for Flip time: Bead rescue; for Flip time in Days: Control (FA plus bottle). As for the experimental part:
as §4
Day 2: Prepare ten-fold serial dilution of overnight culture in blood/broth as required and incubate at 37° C. for 2 h for outgrowth.
Add 5 mL of spiked blood+beads (set 1) and 5 mL of spiked blood/Abx+beads (set 3) to blood culture bottles (BioMerieux SA culture bottle) using a vial adapter (West Pharmaceutical Services, Inc. PA, US).
Remove the adaptor and incubate the blood culture bottles in the automated blood culture cabinet (BacT/ALERT BioMerieux) for up to 5 days.
as §3, §1
as §2, with “Incubate on ITL TherMix (32.5° C./30 min/1000 rpm—ramped speed protocol) • 6.” left out
as §5, with “Incubate on ITL TherMix (32.5° C./30 min/1000 rpm—ramped speed protocol) • 6.” left out

Results on one compound are retold here after US20240210394A1, “MICROORGANISM CAPTURE FROM ANTIMICROBIAL-CONTAINING SOLUTION” (MOMENTUM BIOSCIENCE LIMITED, priority 2019, published 2024).

The structures appear in SMILES notation.

Regarding `C[C@@H](O)[C@H]1C(=O)N2C(C(=O)O)=C(S[C@@H]3CN[C@H](C(=O)N(C)C)C3)[C@H](C)[C@H]12` [Meropenem], the “Flip time” value in experiment [1] (Bead rescue, 1250 cfu/5 mL blood) was 0.81 days; in experiment [1] (Bead rescue, 200000 cfu/5 mL blood), 0.54 days; in experiment [1] (Bead rescue, 2000000 cfu/5 mL blood) it was 0.46 days; in experiment [1] (Control (FA plus bottle), 200000 cfu/5 mL blood) it was 0.9 days; in experiment [1] (Control (FA plus bottle), 2000000 cfu/5 mL blood) it was 0.81 days; in experiment [2] (125000 cfu/5 mL blood), 0.43 days. Besides, the “Flip time” value is 0.38 days in experiment [2] (1250000 cfu/5 mL blood), 0.56 days in experiment [6] (900 cfu/5 mL blood), 0.46 days in experiment [6] (150000 cfu/5 mL blood) and 0.43 days in experiment [6] (1500000 cfu/5 mL blood). Moreover, the “Flip time in Days” value is “Neg” in experiment [1] (Control (FA plus bottle), 1250 cfu/5 mL blood); “Neg” in experiment [2] (125000 cfu/5 mL blood); “Neg” in experiment [2] (1250000 cfu/5 mL blood); “Neg” in experiment [6] (900 cfu/5 mL blood); “Neg” in experiment [6] (150000 cfu/5 mL blood); “Neg” in experiment [6] (1500000 cfu/5 mL blood). The “MIC” value in experiment [3], in experiment [4] and in experiment [5] was no more than 1 µg/mL throughout.
